Source: ChEMBL document CHEMBL5726667, “Substituted pyrrolo[2,3-b]pyrazines and substituted pyrazolo[3,4-b]pyridines as ITK and JAK kinase inhibitors” (2017)
pIC50: −log10 of the molar value.

Legend:
[1] = molecular target: T1, Tyrosine-protein kinase ITK/TSK (Homo sapiens, UniProt Q08881); assay: In Vitro Inhibition Assay: ITK and JAK3 Kinase assay procedures:Enzyme was incubated with substrate peptide in reaction buffer in the presence and absence of test compounds or Staurosporine. All additions were done on ice, followed by the addition of ATP mix. Wells were uniformly mixed using an Eppendorff plate shaker and incubated at 30° C. for 20 min, and stopped by the addition of 5 μL of 3% …
T1 sequence (Q08881 whole entry): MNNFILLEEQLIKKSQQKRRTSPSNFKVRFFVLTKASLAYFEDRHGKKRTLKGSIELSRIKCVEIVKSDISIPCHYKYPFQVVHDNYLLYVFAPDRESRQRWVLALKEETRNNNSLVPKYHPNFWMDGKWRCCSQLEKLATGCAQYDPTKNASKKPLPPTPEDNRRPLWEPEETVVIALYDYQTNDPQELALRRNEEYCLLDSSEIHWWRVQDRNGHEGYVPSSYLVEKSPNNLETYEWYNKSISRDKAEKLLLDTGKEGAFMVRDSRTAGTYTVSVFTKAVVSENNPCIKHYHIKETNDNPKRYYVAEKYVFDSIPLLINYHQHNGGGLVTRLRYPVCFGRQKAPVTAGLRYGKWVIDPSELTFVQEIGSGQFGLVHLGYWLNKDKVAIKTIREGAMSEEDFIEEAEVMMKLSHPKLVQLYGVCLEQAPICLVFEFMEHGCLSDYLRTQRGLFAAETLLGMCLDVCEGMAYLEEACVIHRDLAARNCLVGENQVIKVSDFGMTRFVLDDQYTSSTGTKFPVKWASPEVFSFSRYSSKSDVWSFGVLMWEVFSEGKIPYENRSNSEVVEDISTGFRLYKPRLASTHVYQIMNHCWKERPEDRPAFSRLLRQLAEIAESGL
Description: (§1) All additions were done on ice, followed by the addition of ATP mix. Wells were uniformly mixed using an Eppendorff plate shaker and incubated at 30° C. for 20 min, and stopped by the addition of 5 μL of 3% phosphoric acid. Volume was increased to 100 μL by adding 0.8% phosphoric acid which was then transferred to PC filter mats (Millipore), pre-equilibrated with 70% ethanol and water. Plates were washed thrice with 100 μL 0.8% phosphoric acid and dried for an hour at 60° C. 100 μL scintillation fluid was added into each well and reading taken in Perkin Elmer TOPCOUNT beta counter.

[2] = molecular target: T2, Tyrosine-protein kinase JAK3 (Homo sapiens, UniProt P52333); assay: as above
T2 sequence (P52333 whole entry): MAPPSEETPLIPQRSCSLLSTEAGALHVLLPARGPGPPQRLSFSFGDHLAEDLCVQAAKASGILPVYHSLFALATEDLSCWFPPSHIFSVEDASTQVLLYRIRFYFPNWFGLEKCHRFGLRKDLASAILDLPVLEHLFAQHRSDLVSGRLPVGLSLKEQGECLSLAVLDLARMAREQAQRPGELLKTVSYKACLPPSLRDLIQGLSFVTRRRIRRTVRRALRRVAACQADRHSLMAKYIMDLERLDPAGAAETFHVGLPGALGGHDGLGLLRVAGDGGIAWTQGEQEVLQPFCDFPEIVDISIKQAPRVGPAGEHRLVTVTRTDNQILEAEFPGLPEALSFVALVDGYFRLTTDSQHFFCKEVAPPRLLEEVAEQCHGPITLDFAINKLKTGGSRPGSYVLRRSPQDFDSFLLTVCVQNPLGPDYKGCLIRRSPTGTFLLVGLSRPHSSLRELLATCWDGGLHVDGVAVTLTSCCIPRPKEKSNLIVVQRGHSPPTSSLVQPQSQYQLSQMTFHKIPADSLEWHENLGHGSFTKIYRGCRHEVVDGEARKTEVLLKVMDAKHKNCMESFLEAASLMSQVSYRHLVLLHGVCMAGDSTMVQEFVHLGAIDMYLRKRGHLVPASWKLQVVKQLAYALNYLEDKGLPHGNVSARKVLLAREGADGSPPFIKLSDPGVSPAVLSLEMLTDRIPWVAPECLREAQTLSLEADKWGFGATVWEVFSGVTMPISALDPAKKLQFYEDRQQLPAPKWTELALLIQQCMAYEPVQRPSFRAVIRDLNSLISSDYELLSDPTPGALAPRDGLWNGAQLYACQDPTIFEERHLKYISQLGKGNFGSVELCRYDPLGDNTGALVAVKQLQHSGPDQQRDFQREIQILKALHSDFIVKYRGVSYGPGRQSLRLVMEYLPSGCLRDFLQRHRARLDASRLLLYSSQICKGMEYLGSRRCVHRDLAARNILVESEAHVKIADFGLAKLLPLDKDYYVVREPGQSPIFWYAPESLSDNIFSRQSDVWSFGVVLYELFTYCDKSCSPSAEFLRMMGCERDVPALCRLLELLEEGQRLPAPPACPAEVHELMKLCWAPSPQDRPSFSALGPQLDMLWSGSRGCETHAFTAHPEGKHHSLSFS
Description: as §1

SMILES | pIC50 [1] | pIC50 [2]
Cc1c[nH]c2ncc(Nc3cccc(CC#N)c3)cc12 | < 6.00 | < 6.00
C=CC(=O)Nc1cccc(-c2cnc3[nH]ccc3n2)c1 | < 6.00 | < 6.00
Cc1c[nH]c2ncc(-c3cccc(NC(=O)/C=C/N(C)C)c3)cc12 | < 6.00 | < 6.00
CC/C=C/C(=O)Nc1cccc(-c2cnc3[nH]cc(C)c3c2)c1 | < 6.00 | < 6.00
C=CC(=O)Nc1cccc(-c2cnc3[nH]cc(-c4cc5ccc(Cl)cc5[nH]4)c3n2)c1 | < 7.00 | < 7.00
C=CC(=O)Nc1cccc(-c2cnc3[nH]ccc3c2)c1 | < 6.00 | < 6.00
Cc1c[nH]c2ncc(-c3ccc(Cl)c(NC(=O)/C=C/N(C)C)c3)cc12 | < 6.00 | < 6.00

The next lines start with the values.

pIC50 [1] | pIC50 [2] | SMILES
< 7.00 | < 7.00 | C=CC(=O)Nc1cccc(-c2cnc3c(c2)CC(=O)N3)c1
< 7.00 | < 7.00 | CC/C=C/C(=O)Nc1cccc(-c2cnc3[nH]nc(C)c3c2)c1
> 7.00 | > 7.00 | COc1c(F)cc(F)cc1-c1c[nH]c2ncc(-c3cc(NC(=O)/C(C)=C/C(C)(C)C)ccc3F)cc12
< 7.00 | < 7.00 | CC/C=C/C(=O)Nc1cc(-c2cnc3[nH]cc(C)c3c2)ccc1Cl
< 7.00 | < 7.00 | C=CC(=O)Nc1cccc(-c2cnc3[nH]cc(-c4cc(F)cc(F)c4OC)c3n2)c1
